# US12514832B2, “Methods for using low-dose colchicine after myocardial infarction” (INSTITUT DE CARDIOLOGIE DE MONTREAL, priority 2019, dated 2026)
# Key:
# white blood cell count = assay: COLCOT white blood cell counts (total, lymphocytes, neutrophils); type: in vivo, human; conditions: for Total white blood cell count, geometric mean / Total white blood cell count, Adjusted GM percent change: N=992
# Description: Additional prespecified exploratory end points included the change from baseline to 6 months in the high-sensitivity C-reactive protein level and the change from baseline to 12 months in the white-cell count. The C-reactive protein biomarker substudy was implemented after a protocol amendment and was optional for sites and for patients; 34 sites chose to participate in this substudy.
# The analysis of the primary end point was repeated in the per-protocol population (i.e., patients without major protocol deviations). Secondary and exploratory end points expressed as time to event were analyzed similarly. The changes from baseline to follow-up were analyzed with the use of an analysis of covariance model with adjustment for baseline value, and estimates of treatment effect are presented with 95% confidence intervals.
# In Table 8, the placebo-adjusted geometric mean percent change was obtained by exponentiating the adjusted mean difference between groups from the analysis of covariance model (based on log-transformed data), then subtracting 1 and multiplying by 100.
# In addition, the C-reactive protein biomarker sub-study was implemented following a protocol amendment and was optional for sites and for patients; 34 sites accepted to participate in this substudy. There were 213 and 208 patients who provided blood samples at baseline and 6 months, respectively. Paired baseline and 6-month hs-CRP values were available in 207 patients. Clinically available white blood cell counts were obtained from 2598 patients at baseline and 1998 patients at 12 months, and paired baseline and 12-month values were available in 1972 patients. Statistical analysis was conducted on the patients who provided both baseline and follow-up data and as these were exploratory analyses, no missing data was imputed.
# Information about white-cell counts at baseline and at the 12-month follow-up were also available for a relatively small subgroup of 1972 patients. The adjusted geometric mean percent changes from baseline to 1 year in the total white-cell count were −18.8% in the colchicine group and −19.0% in the placebo group, with no significant difference between groups (0.3% percentage points; 95% CI, −2.2 to 2.7).
# [1] = COLCOT safety and adverse events (safety population); type: in vivo, human
# Description: All serious adverse events were recorded. The only other adverse events recorded were those that were considered to be related to the gastrointestinal system, events that were judged by the investigator to be related to colchicine or placebo, or laboratory abnormalities that had been judged by the investigator to be clinically significant.
# [2] = baseline to 12 months, colchicine vs placebo
smiles,measurement,setting,value
"COc1cc2c(c(OC)c1OC)-c1ccc(OC)c(=O)cc1[C@@H](NC(C)=O)CC2 [Colchicine, colchicine]","Circulating lymphocytes, geometric mean",white blood cell count; at 12 months,1.83 10^3/μL
same,"Circulating neutrophils, geometric mean",white blood cell count; at 12 months,3.95 10^3/μL
same,"Total white blood cell count, geometric mean",white blood cell count; at 12 months,6.95 10^3/μL
same,"Circulating lymphocytes, geometric mean",white blood cell count; at Randomization (baseline),1.79 10^3/μL
same,"Circulating neutrophils, geometric mean",white blood cell count; at Randomization (baseline),5.45 10^3/μL
same,"Total white blood cell count, geometric mean",white blood cell count; at Randomization (baseline),8.54 10^3/μL
same,"Circulating lymphocytes, Adjusted GM percent change",white blood cell count; baseline to 12 months,1.80%
same,"Circulating neutrophils, Adjusted GM percent change",white blood cell count; baseline to 12 months,−27.63%
same,"Total white blood cell count, Adjusted GM percent change",white blood cell count; baseline to 12 months,−18.81%
same,"Total white blood cell count, Adjusted GM percent change","white blood cell count; baseline to 12 months, listed as colchicine",−18.8%
same,"Circulating lymphocytes, Placebo-adjusted GM percent change",white blood cell count; [2],1.10%
same,"Circulating neutrophils, Placebo-adjusted GM percent change",white blood cell count; [2],0.45%
same,"Total white blood cell count, Placebo-adjusted GM percent change",white blood cell count; [2],0.26%
same,"Total white blood cell count, Placebo-adjusted GM percent change","white blood cell count; baseline to 12 months, colchicine vs placebo, listed as colchicine",0.3%
same,"trial regimen discontinued, percent of patients",[1]; at the end of the trial,18.4%
same,incidence of septic shock (in words),[1]; colchicine vs placebo,did not increase the incidence of septic shock
same,"Cancers, excluding nonmelanoma skin cancers, number of patients",[1]; safety population,42
same,"Cancers, excluding nonmelanoma skin cancers, percent",[1]; safety population,1.8%
same,"Anemia, number of patients","[1]; safety population, N=2330",14
same,"Anemia, percent","[1]; safety population, N=2330",0.6%
same,"Any related adverse event, number of patients","[1]; safety population, N=2330",372
same,"Any related adverse event, percent","[1]; safety population, N=2330",16.0%
same,"Any serious adverse event, number of patients","[1]; safety population, N=2330",383
same,"Any serious adverse event, percent","[1]; safety population, N=2330",16.4%
same,"Cancer, number of patients","[1]; safety population, N=2330",43
same,"Cancer, percent","[1]; safety population, N=2330",1.8%
same,"Diarrhea adverse event, number of patients","[1]; safety population, N=2330",225
same,"Diarrhea adverse event, percent","[1]; safety population, N=2330",9.7%
same,"Flatulence adverse event, number of patients","[1]; safety population, N=2330",15
same,"Flatulence adverse event, percent","[1]; safety population, N=2330",0.6%
same,"Gastrointestinal adverse event, number of patients","[1]; safety population, N=2330",408
same,"Gastrointestinal adverse event, percent","[1]; safety population, N=2330",17.5%
same,"Gastrointestinal hemorrhage, number of patients","[1]; safety population, N=2330",7
same,"Gastrointestinal hemorrhage, percent","[1]; safety population, N=2330",0.3%
same,"Gastrointestinal serious adverse event, number of patients","[1]; safety population, N=2330",46
same,"Gastrointestinal serious adverse event, percent","[1]; safety population, N=2330",2.0%
same,"Hospitalization for heart failure, number of patients","[1]; safety population, N=2330",25
same,"Hospitalization for heart failure, percent","[1]; safety population, N=2330",1.1%
same,"Infection serious adverse event, number of patients","[1]; safety population, N=2330",51
same,"Infection serious adverse event, percent","[1]; safety population, N=2330",2.2%
same,"Leukopenia, number of patients","[1]; safety population, N=2330",2
same,"Leukopenia, percent","[1]; safety population, N=2330",0.1%
same,"Nausea adverse event, number of patients","[1]; safety population, N=2330",43
same,"Nausea adverse event, percent","[1]; safety population, N=2330",1.8%
same,"Pneumonia serious adverse event, number of patients","[1]; safety population, N=2330",21
same,"Pneumonia serious adverse event, percent","[1]; safety population, N=2330",0.9%
same,"Septic shock serious adverse event, number of patients","[1]; safety population, N=2330",2
same,"Septic shock serious adverse event, percent","[1]; safety population, N=2330",0.1%
same,"Thrombocytopenia, number of patients","[1]; safety population, N=2330",3
same,"Thrombocytopenia, percent","[1]; safety population, N=2330",0.1%
same,serious adverse event of myopathy,[1]; statins used in 99% of trial participants,no serious adverse event of myopathy linked to colchicine occurred
